# Molecular target: T1, human serum albumin (HSA) (Homo sapiens, UniProt P02768)
# T1 construct: gene ALB; mature full-length, 585 residues, 66500 Da, single chain
# Assay: intrinsic fluorescence quenching, double-log plot
# Type: binding
# Conditions: 20 °C, 0.01 M PBS pH 7.4, 1 μM HSA, 0-18 nM ligand, λex 280 nm
# From the text: intrinsic fluorescence quenching, double-log plot on human serum albumin (HSA)
# T1 sequence (P02768 25-609): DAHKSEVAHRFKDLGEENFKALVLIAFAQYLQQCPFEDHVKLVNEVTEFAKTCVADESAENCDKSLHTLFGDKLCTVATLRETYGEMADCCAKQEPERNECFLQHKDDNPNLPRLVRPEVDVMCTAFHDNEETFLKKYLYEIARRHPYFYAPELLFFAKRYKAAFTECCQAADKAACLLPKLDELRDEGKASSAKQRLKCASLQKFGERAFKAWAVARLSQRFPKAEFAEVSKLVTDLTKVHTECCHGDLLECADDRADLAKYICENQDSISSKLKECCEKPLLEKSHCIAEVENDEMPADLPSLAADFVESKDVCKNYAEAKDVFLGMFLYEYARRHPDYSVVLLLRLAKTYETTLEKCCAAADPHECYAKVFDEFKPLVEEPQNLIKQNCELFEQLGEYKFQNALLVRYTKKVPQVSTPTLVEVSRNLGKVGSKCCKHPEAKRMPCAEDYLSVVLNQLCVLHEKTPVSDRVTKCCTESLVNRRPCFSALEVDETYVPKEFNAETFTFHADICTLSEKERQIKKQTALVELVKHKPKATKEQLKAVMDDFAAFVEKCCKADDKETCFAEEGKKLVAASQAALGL
structure (smiles),measurement,value
C[C@@]12C[C@@]3(O)O[C@@H](O1)[C@]1(COC(=O)c4ccccc4)[C@H]3C[C@@]12O[C@@H]1O[C@H](CO)[C@@H](O)[C@H](O)[C@H]1O [paeoniflorin],Ka (mol.L^-1) ± SD,7.39 × 10^4 ± 0.174 mol·L^-1

# From PMC6017552, “Interaction between Saikosaponin D, Paeoniflorin, and Human Serum Albumin” (Molecules : A Journal of Synthetic Chemistry and Natural …, 2018)
